# Results published in ChEMBL document CHEMBL5352466, “New bioisosteric sulphur-containing choline kinase inhibitors with a tracked mode of action” (Eur J Med Chem, 2023).
# Calls of active or inactive are those of the source. The calls are words filed in the database; no cut-off is given here.
# Assays:
# HeLa [1] = assay: Antiproliferative activity against human HeLa cells assessed as inhibition of cell growth incubated for 72 hrs; type: functional
# A549 [2] = assay: Antiproliferative activity against human A549 cells assessed as inhibition of cell growth incubated for 72 hrs; type: functional
# HT-29 = assay: Antiproliferative activity against human HT-29 cells assessed as inhibition of cell growth incubated for 72 hrs; type: functional
# Choline kinase alpha = Choline kinase alpha (Homo sapiens, UniProt P35790); assay: Inhibition of human Choline kinase alpha 1 incubated for 10 mins by liquid-scintillation counter analysis
# HeLa [3] = assay: Induction of cell cycle arrest in human HeLa cells at 1 to 5 uM incubated for 24 hrs by PI staining based flow cytometry analysis; type: functional; details: dose 1-5 µM
# HeLa [4] = assay: Induction of apoptosis in human HeLa cells at 1 to 5 uM measured for 72 hrs by Annexin V/propidium iodide staining based flow cytometry analysis; type: functional, cell-based; details: dose 1-5 µM
# [5] = Antiproliferative activity against human Astrocyte cells assessed as inhibition of cell growth incubated for 72 hrs by resazurin dye based assay; type: toxicity
# A549 [6] = assay: Induction of cell cycle arrest in human A549 cells at 1 to 5 uM incubated for 24 hrs by PI staining based flow cytometry analysis; type: functional; details: dose 1-5 µM
# [7] = Antiproliferative activity against human MCF-10A cells assessed as inhibition of cell growth incubated for 72 hrs by resazurin dye based assay; type: toxicity
# HeLa [8] = assay: Induction of apoptosis in human HeLa cells assessed as reduction in MCL-1 expression at 5 uM measured for 48 hrs by Western blotting analysis; type: functional, cell-based
# Astrocyte = assay: Induction of apoptosis in human Astrocyte cells assessed as reduction in MCL-1 expression at 5 uM measured for 48 hrs by Western blotting analysis; type: functional, cell-based
# HeLa [9] = assay: Induction of apoptosis in human HeLa cells at 1 to 5 uM by Annexin V/propidium iodide staining based flow cytometry analysis; type: functional, cell-based; details: dose 1-5 µM, time 48-72 hrs, TDE = time-dependent effect
# MCF7 = assay: Antiproliferative activity against human MCF7 cells assessed as inhibition of cell growth incubated for 72 hrs; type: functional
# HeLa [10] = assay: Induction of apoptosis in human HeLa cells assessed as increase in cleaved PARP-1 expression at 5 uM measured for 48 hrs by Western blotting analysis; type: functional, cell-based
# HeLa [11] = assay: Induction of cell cycle arrest in human HeLa cells assessed as accumulation of cells at G1 phase at 1 to 5 uM incubated for 24 hrs by PI staining based flow cytometry analysis; type: functional; details: dose 1-5 µM
# HeLa [12] = assay: Induction of apoptosis in human HeLa cells measured for 48 to 72 hrs by Annexin V/propidium iodide staining based flow cytometry analysis; type: functional, cell-based; details: dose 1-5 µM, time 48-72 hrs
# HeLa [13] = assay: Induction of mitochondrial membrane potential depolarization in human HeLa cells at 1 to 5 uM incubated for 24 hrs by JC-1 staining based flow cytometry; type: functional, cell-based; details: dose 1-5 µM
# A549 [14] = assay: Induction of mitochondrial membrane potential depolarization in human A549 cells at 5 uM incubated for 24 hrs by JC-1 staining based flow cytometry; type: functional, cell-based
# MDA-MB-231 = assay: Antiproliferative activity against human MDA-MB-231 cells assessed as inhibition of cell growth incubated for 72 hrs; type: functional
# HeLa [15] = assay: Induction of apoptosis in human HeLa cells at 5 uM measured for 72 hrs in presence of Z-VAD-fmk by Annexin V/propidium iodide staining based flow cytometry analysis; type: functional, cell-based
# A549 [16] = assay: Induction of apoptosis in human A549 cells at 5 uM measured for 72 hrs in presence of Z-VAD-fmk by Annexin V/propidium iodide staining based flow cytometry analysis; type: functional, cell-based
# [17] = Drug localization in cytosol of human MCF7 cells assessed as increase in fluorescence intensity at 8 uM by microscopic analysis; type: ADME, subcellular
# [18] = Drug localization in cytosol of human MCF7 cells assessed as increase in fluorescence intensity at 8 uM measured after 15 mins by microscopic analysis; type: ADME, subcellular; details: 0.25 h
# Cell membrane = assay: Induction of cell membrane disruption in human MCF7 cells at 8 uM measured after 90 mins; type: subcellular
# Choline kinase alpha, sequence (P35790 whole entry): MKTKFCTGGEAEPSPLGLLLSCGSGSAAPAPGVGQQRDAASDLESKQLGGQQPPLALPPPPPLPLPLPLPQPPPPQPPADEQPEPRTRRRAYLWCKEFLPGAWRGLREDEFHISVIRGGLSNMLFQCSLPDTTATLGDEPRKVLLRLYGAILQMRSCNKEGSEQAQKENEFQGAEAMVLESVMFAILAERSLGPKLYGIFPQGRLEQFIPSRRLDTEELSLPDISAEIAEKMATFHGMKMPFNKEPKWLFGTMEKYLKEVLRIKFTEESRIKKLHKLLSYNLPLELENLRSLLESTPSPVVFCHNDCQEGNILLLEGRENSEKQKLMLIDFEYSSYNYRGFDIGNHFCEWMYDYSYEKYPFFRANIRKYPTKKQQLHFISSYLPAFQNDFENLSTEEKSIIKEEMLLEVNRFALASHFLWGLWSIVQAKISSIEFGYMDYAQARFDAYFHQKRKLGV
GI50 (HeLa [1]) [nM],GI50 (A549 [2]) [nM],GI50 (HT-29) [nM],IC50 (Choline kinase alpha; read-out: IC50) [nM],GI50 (MCF7) [nM],GI50 (MDA-MB-231) [nM],SMILES,further results
> 10000,> 10000,> 10000,520,,,c1cc2c(N3CCCCC3)nc[n+](Cc3ccc(SSc4ccc(C[n+]5cnc(N6CCCCC6)c6ccsc65)cc4)cc3)c2s1,
> 10000,> 10000,> 10000,360,,,c1cc(SSc2ccc(C[n+]3ccc(N4CCCC4)cc3)cc2)ccc1C[n+]1ccc(N2CCCC2)cc1,
260,530,3000,,1340,,Clc1ccc2c(N3CCCC3)cc[n+](Cc3ccc(SCCSc4ccc(C[n+]5ccc(N6CCCC6)c6ccc(Cl)cc65)cc4)cc3)c2c1,Activity (HeLa [3]): inactive; Activity (HeLa [4]): Active; GI50 at 72 h [5]: 5000 nM; Activity (A549 [6]): inactive; GI50 at 72 h [7]: 2600 nM; Activity (HeLa [8]): Active; Activity (Astrocyte): inactive; Activity (HeLa [9]): Tde; Activity (HeLa [10]): Active; Activity (HeLa [11]): Active; Activity (HeLa [12]): Dose-Dependent Effect; Activity (HeLa [13]): Active; Activity (A549 [14]): Active
> 10000,> 10000,> 10000,1430,,,Clc1ccc2c(N3CCCC3)cc[n+](Cc3ccc(SSc4ccc(C[n+]5ccc(N6CCCC6)c6ccc(Cl)cc65)cc4)cc3)c2c1,
4630,1290,2410,640,2120,1920,c1cc2c(s1)c(N1CCCCCC1)cc[n+]2Cc1ccc(SCCSc2ccc(C[n+]3ccc(N4CCCCCC4)c4sccc43)cc2)cc1,Activity (HeLa [3]): inactive; Activity (HeLa [4]): Active; GI50 at 72 h [5]: 4400 nM; Activity (A549 [6]): inactive; GI50 at 72 h [7]: 2500 nM; Activity (HeLa [8]): Active; Activity (Astrocyte): inactive; Activity (HeLa [9]): Tde; Activity (HeLa [10]): Active; Activity (HeLa [15]): Active; Activity (HeLa [11]): Active; Activity (HeLa [12]): Dose-Dependent Effect; Activity (A549 [16]): inactive; Activity (HeLa [13]): Active; Activity (A549 [14]): Active
8840,1590,9060,,,1750,[Br-].[Br-].c1cc(SCCSc2ccc(C[n+]3ccc(N4CCCC4)cc3)cc2)ccc1C[n+]1ccc(N2CCCC2)cc1,IC50 (Choline kinase alpha): Not Determined(Insoluble)
> 10000,> 10000,> 10000,850,,,CN(c1ccc(Cl)cc1)c1cc[n+](Cc2ccc(SSc3ccc(C[n+]4ccc(N(C)c5ccc(Cl)cc5)c5ccccc54)cc3)cc2)c2ccccc12,
2800,890,2090,660,1460,1460,c1cc2c(N3CCCCCC3)cc[n+](Cc3ccc(SCCSc4ccc(C[n+]5ccc(N6CCCCCC6)c6ccsc65)cc4)cc3)c2s1,Activity (HeLa [3]): inactive; Activity (HeLa [4]): Active; GI50 at 72 h [5]: 2500 nM; Activity (A549 [6]): inactive; Activity (HeLa [8]): Active; Activity (Astrocyte): inactive; Activity (HeLa [9]): Tde; Activity (HeLa [10]): Active; Activity (HeLa [15]): Active; Activity (HeLa [11]): Active; Activity (HeLa [12]): Dose-Dependent Effect; Activity (A549 [16]): inactive; Activity (HeLa [13]): Active; Activity (A549 [14]): Active
> 10000,> 10000,> 10000,570,,,c1cc2c(s1)c(N1CCCC1)nc[n+]2Cc1ccc(SSc2ccc(C[n+]3cnc(N4CCCC4)c4sccc43)cc2)cc1,
9930,1370,7480,1010,3110,2010,c1cc2c(s1)c(N1CCCC1)cc[n+]2Cc1ccc(SCCSc2ccc(C[n+]3ccc(N4CCCC4)c4sccc43)cc2)cc1,
2200,6160,> 10000,350,,,c1cc2c(s1)c(N1CCCC1)cc[n+]2Cc1ccc(SSc2ccc(C[n+]3ccc(N4CCCC4)c4sccc43)cc2)cc1,
> 10000,2660,6070,710,2370,2950,CN(c1ccc(Cl)cc1)c1cc[n+](Cc2ccc(SCCSc3ccc(C[n+]4ccc(N(C)c5ccc(Cl)cc5)c5ccsc54)cc3)cc2)c2sccc12,
> 10000,8200,> 10000,2600,9120,8940,CN(c1ccccc1)c1nc[n+](Cc2ccc(SCCSc3ccc(C[n+]4cnc(N(C)c5ccccc5)c5sccc54)cc3)cc2)c2ccsc12,
2990,920,2160,4400,1210,1230,c1cc2c(N3CCCCC3)cc[n+](Cc3ccc(SCCSc4ccc(C[n+]5ccc(N6CCCCC6)c6ccsc65)cc4)cc3)c2s1,
> 10000,1380,> 10000,,,4200,CN(C)c1cc[n+](Cc2ccc(SCCSc3ccc(C[n+]4ccc(N(C)C)cc4)cc3)cc2)cc1.[Br-].[Br-],IC50 (Choline kinase alpha): Not Determined(Insoluble)
440,2450,> 10000,640,,,CN(C)c1cc[n+](Cc2ccc(SSc3ccc(C[n+]4ccc(N(C)C)cc4)cc3)cc2)cc1,
9060,2020,5980,1720,4730,1970,CN(c1ccccc1)c1cc[n+](Cc2ccc(SCCSc3ccc(C[n+]4ccc(N(C)c5ccccc5)c5ccccc54)cc3)cc2)c2ccccc12,
5250,4050,6800,1430,3940,6680,CN(c1ccccc1)c1cc[n+](Cc2ccc(SCCSc3ccc(C[n+]4ccc(N(C)c5ccccc5)c5ccsc54)cc3)cc2)c2sccc12,
> 10000,2900,8900,1020,3690,5870,CN(c1ccc(Cl)cc1)c1cc[n+](Cc2ccc(SCCSc3ccc(C[n+]4ccc(N(C)c5ccc(Cl)cc5)c5ccccc54)cc3)cc2)c2ccccc12,
10100,440,2630,1350,4340,1630,[Br-].[Br-].c1cc2c(s1)c(N1CCCC1)nc[n+]2Cc1ccc(SCCSc2ccc(C[n+]3cnc(N4CCCC4)c4sccc43)cc2)cc1,Drug uptake [17]: Active; Drug uptake [18]: Active; Activity (Cell membrane): inactive
> 10000,> 10000,> 10000,,,,[Br-].[Br-].c1cc2c(s1)c(N1CCCCCC1)cc[n+]2Cc1ccc(SSc2ccc(C[n+]3ccc(N4CCCCCC4)c4sccc43)cc2)cc1,IC50 (Choline kinase alpha): Not Determined(Insoluble)
1230,4260,> 10000,320,,,c1cc2c(N3CCCCCC3)nc[n+](Cc3ccc(SSc4ccc(C[n+]5cnc(N6CCCCCC6)c6ccsc65)cc4)cc3)c2s1,
